Experimental data as given in PubChem BioAssay (NCI).
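The compound was tested at five concentrations on cells cultured in 96-well plates, with a 48-hour exposure period. GI50 marks 50% less growth. TGI marks complete inhibition of growth.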

Tests used:
Test in all cases: NCI tumour cell line growth inhibition, 48 h
[1] = system: 786-0 renal
[2] = system: A498 renal
[3] = system: A549 NSCLC
[4] = system: ACHN renal
[5] = system: BT-549 breast
[6] = system: CAKI-1 renal
[7] = system: CCRF-CEM leukemia
[8] = system: COLO 205 colon
[9] = system: DU-145 prostate
[10] = system: EKVX NSCLC
[11] = system: HCC-2998 colon
[12] = system: HCT-116 colon
[13] = system: HCT-15 colon
[14] = system: HL-60(TB) leukemia
[15] = system: HOP-62 NSCLC
[16] = system: HOP-92 NSCLC
[17] = system: HS 578T breast
[18] = system: HT29 colon
[19] = system: IGROV1 ovarian
[20] = system: K-562 leukemia
[21] = system: KM12 colon
[22] = system: LOX IMVI melanoma
[23] = system: M14 melanoma
[24] = system: MALME-3M melanoma
[25] = system: MCF7 breast
[26] = system: MDA-MB-231 breast
[27] = system: MDA-MB-435
[28] = system: MOLT-4 leukemia
[29] = system: NCI-H226 lung
[30] = system: NCI-H23 lung
[31] = system: NCI-H460 lung
[32] = system: NCI-H522 lung
[33] = system: NCI/ADR-RES ovarian
[34] = system: OVCAR-3 ovarian
[35] = system: OVCAR-4 ovarian
[36] = system: OVCAR-5 ovarian
[37] = system: OVCAR-8 ovarian
[38] = system: PC-3 prostate
[39] = system: RPMI-8226 leukemia
[40] = system: RXF 393 renal
[41] = system: SF-268 CNS
[42] = system: SF-295 CNS
[43] = system: SF-539 CNS
[44] = system: SK-MEL-2 melanoma
[45] = system: SK-MEL-28 melanoma
[46] = system: SK-MEL-5 melanoma
[47] = system: SK-OV-3 ovarian
[48] = system: SN12C renal
[49] = system: SNB-19 CNS
[50] = system: SNB-75 CNS
[51] = system: SR leukemia
[52] = system: SW-620 colon
[53] = system: T-47D breast
[54] = system: TK-10 renal
[55] = system: U251 CNS
[56] = system: UACC-257 melanoma
[57] = system: UACC-62 melanoma
[58] = system: UO-31 renal

CCN(CC)c1ccc(/C=N/NC(=O)Cc2ccc(Nc3ccnc(C(F)(F)F)c3)cc2)c(O)c1
GI50 [1]: 0.626 µM
TGI [1]: > 100 µM
GI50 [2]: 2.64 µM
TGI [2]: > 89.5 µM
GI50 [3]: 1.19 µM
TGI [3]: > 100 µM
GI50 [4]: 0.399 µM
TGI [4]: > 26.9 µM
GI50 [5]: 0.965 µM
TGI [5]: > 29.2 µM
GI50 [6]: 0.413 µM
TGI [6]: > 25 µM
GI50 [7]: 0.256 µM
TGI [7]: > 100 µM
GI50 [8]: 1.24 µM
TGI [8]: > 100 µM
GI50 [9]: 0.828 µM
TGI [9]: > 100 µM
GI50 [10]: 0.98 µM
TGI [10]: > 77 µM
GI50 [11]: 1.17 µM
TGI [11]: > 100 µM
GI50 [12]: 0.46 µM
TGI [12]: > 100 µM
GI50 [13]: 0.373 µM
TGI [13]: > 100 µM
GI50 [14]: 0.301 µM
TGI [14]: 1.62 µM
GI50 [15]: 0.566 µM
TGI [15]: > 100 µM
GI50 [16]: 4.06 µM
TGI [16]: > 100 µM
GI50 [17]: 1.95 µM
TGI [17]: > 48.9 µM
GI50 [18]: 0.638 µM
TGI [18]: > 68.2 µM
GI50 [19]: 0.472 µM
TGI [19]: > 22 µM
GI50 [20]: 0.49 µM
TGI [20]: > 100 µM
GI50 [21]: 0.826 µM
TGI [21]: > 100 µM
GI50 [22]: 0.413 µM
TGI [22]: 3.8 µM
GI50 [23]: 0.637 µM
TGI [23]: 5.93 µM
GI50 [24]: 1.18 µM
TGI [24]: > 26 µM
GI50 [25]: 0.461 µM
TGI [25]: > 100 µM
GI50 [26]: 0.842 µM
TGI [26]: > 100 µM
GI50 [27]: 1.29 µM
TGI [27]: > 100 µM
GI50 [28]: 0.37 µM
TGI [28]: > 100 µM
GI50 [29]: 0.699 µM
TGI [29]: > 23.5 µM
GI50 [30]: 1.34 µM
TGI [30]: > 100 µM
GI50 [31]: 0.351 µM
TGI [31]: > 39.7 µM
GI50 [32]: 1.27 µM
TGI [32]: > 100 µM
GI50 [33]: 1.19 µM
TGI [33]: > 100 µM
GI50 [34]: 0.473 µM
TGI [34]: > 100 µM
GI50 [35]: 0.442 µM
TGI [35]: > 100 µM
GI50 [36]: 2.42 µM
TGI [36]: > 100 µM
GI50 [37]: 0.757 µM
TGI [37]: > 100 µM
GI50 [38]: 1.85 µM
TGI [38]: > 100 µM
GI50 [39]: 0.521 µM
TGI [39]: 54.2 µM
GI50 [40]: 1.03 µM
TGI [40]: 98.5 µM
GI50 [41]: 0.455 µM
TGI [41]: > 100 µM
GI50 [42]: 0.713 µM
TGI [42]: > 60 µM
GI50 [43]: 0.652 µM
TGI [43]: 7.02 µM
GI50 [44]: 4.52 µM
TGI [44]: > 100 µM
GI50 [45]: 1.1 µM
TGI [45]: > 78 µM
GI50 [46]: 0.49 µM
TGI [46]: 3.86 µM
GI50 [47]: 0.359 µM
TGI [47]: > 100 µM
GI50 [48]: 1.15 µM
TGI [48]: > 100 µM
GI50 [49]: 0.588 µM
TGI [49]: > 26.6 µM
GI50 [50]: 2.12 µM
TGI [50]: > 61.1 µM
GI50 [51]: 0.285 µM
TGI [51]: > 19.9 µM
GI50 [52]: 0.729 µM
TGI [52]: > 100 µM
GI50 [53]: 0.517 µM
TGI [53]: > 25.1 µM
GI50 [54]: 0.461 µM
TGI [54]: > 100 µM
GI50 [55]: 0.586 µM
TGI [55]: > 100 µM
GI50 [56]: 1.82 µM
TGI [56]: > 29.2 µM
GI50 [57]: 0.48 µM
TGI [57]: 7.86 µM
GI50 [58]: 0.482 µM
TGI [58]: > 100 µM
